In PMC11643225, “Novel Benzimidazole-Endowed Chalcones as α-Glucosidase and α-Amylase Inhibitors: An Insight into Structural and Computational Studies” (Molecules, 2024):
Entries after “also recorded” stand apart in the source; their conditions may differ.

What was measured:
yeast α-glucosidase = yeast α-glucosidase inhibition assay (pNPG substrate); assay type: biochemical; settings: yeast enzyme, 37 °C
Method: (§1) The in vitro enzyme inhibition assays for the two enzymes, i.e., α-glucosidase and α-amylase, were performed according to the previous studies.
The yeast α-glucosidase inhibition assay was performed using pNPG as substrate. An amount of 100 µL of enzyme was then added to the mixture, and the reaction was incubated at 37 °C for 10 min. After adding 0.5 mM pNPG solution, the reaction continued at 37 °C for 20 min. The enzyme activity was determined by measuring the absorbance of the liberated p-nitrophenol at 405 nm using a microplate spectrophotometer. The results were expressed as a percentage of α-glucosidase inhibition, calculated using the formula “Inhibition (%) = (A control − A sample)/A control × 100”. The final results of the enzyme inhibition assay are represented as IC50 values which refers to the concentration required to block 50% of α-glucosidase activity under the test conditions.

[1] = target: T1, type-VI B porcine pancreatic α-amylase (Sus scrofa, UniProt P00690); assay: α-amylase inhibition assay (starch substrate, DNS reagent); assay type: biochemical; settings: porcine pancreatic enzyme, 25 °C, read-out: IC50 (mean ± SD) α-Amylase (converted)
T1 construct: performed using type-VI B porcine pancreatic α-amylase, with starch as a substrate; from tissue; host or cells: porcine pancreas
T1 sequence (P00690 16-511): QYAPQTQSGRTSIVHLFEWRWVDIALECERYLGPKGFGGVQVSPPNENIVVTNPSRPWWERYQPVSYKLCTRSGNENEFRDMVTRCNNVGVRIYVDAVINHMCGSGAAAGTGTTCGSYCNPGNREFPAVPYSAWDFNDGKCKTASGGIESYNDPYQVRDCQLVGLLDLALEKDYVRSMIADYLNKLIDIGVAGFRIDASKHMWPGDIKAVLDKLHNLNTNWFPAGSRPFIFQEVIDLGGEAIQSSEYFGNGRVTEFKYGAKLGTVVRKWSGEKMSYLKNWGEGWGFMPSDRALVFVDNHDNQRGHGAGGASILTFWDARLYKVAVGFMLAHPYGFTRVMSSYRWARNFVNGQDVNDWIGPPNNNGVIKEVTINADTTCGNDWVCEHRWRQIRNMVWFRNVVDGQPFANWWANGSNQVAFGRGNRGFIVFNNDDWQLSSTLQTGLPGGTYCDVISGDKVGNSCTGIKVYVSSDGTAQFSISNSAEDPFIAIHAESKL
Method: as §1
The α-amylase inhibition activity was performed using type-VI B porcine pancreatic α-amylase, with starch as a substrate. The enzyme was dissolved in sodium phosphate buffer and the test compound was added at different concentrations. […] The reaction was terminated by adding a DNS reagent and kept in a boiling water bath for 5 min. The resulting mixture was diluted and absorbance was measured at 540 nm using a microplate spectrophotometer.

HEK293 cells = assay type: cell-based; settings: for cytotoxicity against HEK293 cell lines (in words): MTT, 48 h, 250, 500 and 1000 µg/mL, even at the highest concentration (1000 µg/mL)
Method: The Human Embryonic Kidney (HEK-293) cell lines were cultured in Dulbecco’s Modified Eagle Medium (DMEM) supplemented with 10% fetal bovine serum (FBS). The cells were maintained at 37 °C in a humidified atmosphere of 5% CO2. The adherent cells were grown to 70–80% confluency and then harvested by trypsinization (0.25%). The test compounds were dissolved in DMSO and used for all the experiments. DMSO (0.1%) was used as vehicle control and cells cultured in a complete medium without compound served as control.
Briefly, 5 × 10^3 cells (HEK293 cells) were seeded and allowed to adhere overnight. […] Post 48 h, the cells were exposed to MTT (5 mg/mL in phosphate-buffered saline). The formazan crystals were dissolved in DMSO and the absorption was measured at 570 nm using a microplate reader (Tecan Spark, Switzerland). The percentage viability of the cells was determined.

Compound	IC50 (mean ± SD) α-Glucosidase (yeast α-glucosidase)	IC50 [1]	melting point	cytotoxicity against HEK293 cell lines (in words) (HEK293 cells)	cell death (HEK293 cells; HEK293, MTT, 25 µg/mL)
COc1ccc(-c2nc3cc(C(=O)/C=C/c4cc(OC)c(OC)c(OC)c4)ccc3n2C)cc1OC [Compound 7f]	28.75 ± 0.12 f µg/mL	76.4 µM	127 to 129 °C		
COc1ccc(-c2nc3cc(C(=O)/C=C/c4ccc(C)cc4)ccc3n2C)cc1OC [Compound 7b]	32.10 ± 0.96 i µg/mL	81 µM		negligible cytotoxicity	
CO[C@@]12[C@H](COC(N)=O)C3=C(C(=O)C(C)=C(N)C3=O)N1C[C@@H]1N[C@@H]12 [Mitomycin, reference compound]					around 60%
COc1ccc(/C=C/C(=O)c2ccc3c(c2)nc(-c2cc(OC)c(OC)c(OC)c2)n3C)cc1OC [Compound 7k]	29.30 ± 0.21 g µg/mL	84.4 µM	137 to 139 °C		
COc1ccccc1/C=C/C(=O)c1ccc2c(c1)nc(-c1ccc(OC)c(OC)c1)n2C [Compound 7c]	25.21 ± 0.13 c µg/mL	91.9 µM	159 to 161 °C		
COc1ccc(/C=C/C(=O)c2ccc3c(c2)nc(-c2ccc(OC)c(OC)c2)n3C)cc1OC [Compound 7e]	23.88 ± 0.55 b µg/mL	75.1 µM		negligible cytotoxicity	
COc1cc(/C=C/C(=O)c2ccc3c(c2)nc(-c2cc(OC)c(OC)c(OC)c2)n3C)cc(OC)c1OC [Compound 7l, (E)-1-(1-methyl-2-(3,4,5-trimethoxyphenyl)-1H-benzo[d]imidazol-5-yl)-3-(3,4,5-trimethoxyphenyl)prop-2-en-1-one]	22.45 ± 0.36 a µg/mL	39.5 µM		negligible cytotoxicity; also recorded: without exerting toxicity	
COc1ccc(-c2nc3cc(C(=O)/C=C/c4ccccc4Cl)ccc3n2C)cc1OC [Compound 7a]	1.26 ± 0.00583 µg·days/mL	92.7 µM	148 to 150 °C		

Continued, in another order:

IC50 (mean ± SD) α-Glucosidase (yeast α-glucosidase)	IC50 [1]	melting point	Compound	cytotoxicity against HEK293 cell lines (in words) (HEK293 cells)	cell death (HEK293 cells; HEK293, MTT, 25 µg/mL)
26.32 ± 0.52 µg·days/mL	85 µM	98 to 100 °C	COc1ccc(/C=C/C(=O)c2ccc3c(c2)nc(-c2ccc(OC)c(OC)c2)n3C)cc1 [Compound 7d]		
29.28 ± 0.35 g µg/mL	61.7 µM	183 to 184 °C	COc1cc(-c2nc3cc(C(=O)/C=C/c4ccccc4Cl)ccc3n2C)cc(OC)c1OC [Compound 7g]		
33.20 ± 0.60 J·µg/mL	52.8 µM	176 to 178 °C	COc1ccccc1/C=C/C(=O)c1ccc2c(c1)nc(-c1cc(OC)c(OC)c(OC)c1)n2C [Compound 7i]		
36.22 ± 0.58 l µg/mL	68.9 µM	168 to 170 °C	COc1cc(-c2nc3cc(C(=O)/C=C/c4ccc(C)cc4)ccc3n2C)cc(OC)c1OC [Compound 7h]		
27.21 ± 0.36 e µg/mL	85.6 µM	142 to 144 °C	COc1ccc(/C=C/C(=O)c2ccc3c(c2)nc(-c2cc(OC)c(OC)c(OC)c2)n3C)cc1 [Compound 7j]		
